Measurements reported in ChEMBL document CHEMBL6078659, “Comprehensive Insights into the Development of Antitoxoplasmosis Drugs: Current Advances, Obstacles, and Future Perspectives” (J Med Chem, 2024).
Starred links: 1 amine or outer side, 2 acyl side, 3 side chain; linkers in the order of their positions; H or OH if unused. Non-standard residues stand in square brackets, D forms with d. Residues, ends and D or L forms follow the SMILES beside them. X1 = CC[C@@H](C)[C@@H](O[*:1])C(=O)[*:2]; NMeVal(β-OH) = CN[C@H](C(=O)O)C(C)(C)O; NMeF = CN[C@@H](Cc1ccccc1)C(=O)O; NMeV = CN[C@H](C(=O)O)C(C)C

test system: Toxoplasma gondii; test: Antiparasitic activity against Toxoplasma gondii assessed as parasitic growth inhibition; type: functional, organism-based

SMILES	IC50
O=C1C2=C(C(=O)c3ccccc31)[C@H]1Oc3ccc(Cl)cc3[C@H]1CO2	< 10 µM
O=C1C2=C(C(=O)c3ccccc31)[C@H]1Oc3ccccc3[C@H]1CO2 [PTEROCARPANQUINONE]	2.5 µM
O=C(NNC(=S)Nc1ccc(F)cc1)c1cccs1	33.2 µM
COc1c(N2CCNC(C)C2)c(F)cc2c(=O)c(C(=O)O)cn(C3CC3)c12 (stereo not given) [GATIFLOXACIN]	4.1 µg/mL
CC(C)CCCc1ccc2c(c1)C(=O)C=C(N1CCCC1)C2=O	0.32 µM
Cc1c(F)c(N2CCNC(C)C2)cc2c1c(=O)c(C(=O)O)cn2C1CC1 (stereo not given) [GREPAFLOXACIN]	2.4 µg/mL
COc1c(N2C[C@@H]3CCCN[C@@H]3C2)c(F)cc2c(=O)c(C(=O)O)cn(C3CC3)c12 [MOXIFLOXACIN]	5.1 µg/mL
N[C@@H]1[C@H]2CN(c3nc4c(cc3F)c(=O)c(C(=O)O)cn4-c3ccc(F)cc3F)C[C@@H]12 [TROVAFLOXACIN]	0.4 µg/mL
CC(C)=CCC1=C(O)C(=O)c2ccccc2C1=O [LAPACHOL]	4.88 µM
C/C=C/C1=C(O)C(=O)c2ccccc2C1=O	3.01 µM
O=C1C2=C(C(=O)c3ccccc31)[C@H]1Oc3ccc(Br)cc3[C@H]1CO2	2.6 µM
O=C1C(O)=C([C@H]2CC[C@H](c3ccc(Cl)cc3)CC2)C(=O)c2ccccc21 [ATOVAQUONE]	0.07 µM

test system: Toxoplasma gondii; test: Antiparasitic activity against Toxoplasma gondii RH; type: functional, organism-based

SMILES	IC50
C=C(C)[C@@H]1CC[C@]2(CO)CC[C@]3(C)[C@H](CC[C@@H]4[C@@]5(C)CCC(=O)C(C)(C)[C@@H]5CC[C@]43C)[C@@H]12 [BETULONE]	2.7 µM
COc1cc(OC)c2ccc(-c3ccc(O)cc3)[o+]c2c1	0.53 µg/mL
COc1cc(-c2cc(=O)c3c(O)cc(O)cc3o2)cc(OC)c1O [TRICIN]	12.9 µg/mL
Oc1ccc(-c2ccc3c(O)cc(O)cc3[o+]2)cc1	1.08 µg/mL
C/C=C/c1cc(OC)c2c(c1)[C@@H](C)[C@H](c1ccc3c(c1)OCO3)O2 [LICARINE B]	14 µg/mL
COc1cc(O)c2ccc(-c3ccc(O)cc3)[o+]c2c1	1.48 µg/mL
C=CCc1cc(OC)c(O[C@@H](C)[C@H](O)c2ccc(O)c(OC)c2)c(OC)c1	32.4 µg/mL
C[C@H]1[C@H](C)CC[C@]2(C(=O)Nc3nnn[nH]3)CC[C@]3(C)C(=CC[C@@H]4[C@@]5(C)CCC(=O)C(C)(C)[C@@H]5CC[C@]43C)[C@H]12 (single isomer, unassigned)	219 µM
CC1(C)CC[C@]2(C(=O)O)CC[C@]3(C)C(=CC[C@@H]4[C@@]5(C)CC[C@H](O)[C@@](C)(CO)[C@@H]5CC[C@]43C)[C@@H]2C1 [HEDERAGENIN]	548 µM
Oc1cc(O)c2ccc(-c3ccc(O)c(O)c3)[o+]c2c1 [LUTEOLINIDIN]	0.66 µg/mL

test system: Toxoplasma gondii; test: Antiparasitic activity against Toxoplasma gondii RH tachyzoites infected in human HFF cells assessed as parasitic growth inhibition; type: functional, organism-based

SMILES	IC50 [µM]
C=CCC1[C@H](O[Si](C)(C)C(C)(C)C)C[C@@H](C(=O)OC)N1CC=C (stereo not given in full)	5.6
O=c1c2ccc(Oc3ccc(OC(F)(F)F)cc3)cc2[nH]c2cc(Cl)cc(F)c12	0.03
O=C1C=C2C=C[C@@H]3C[C@@]2(O1)[C@H]1CCCCN31 [SECURININE]	9.8
C=CCC1[C@H](O[Si](C)(C)C(C)(C)C)C[C@@H](C(=O)OC)N1C(=O)OC(C)(C)C (stereo not given in full)	3.9
O=C1CCC[C@@H]2[C@H]3CCC[N+]4([O-])CCC[C@@H](CN12)[C@@H]34 (stereo not given in full) [OXYMATRINE]	843
COc1ccc2c3ccnc(C)c3n(C)c2c1	1.8
CC(C)(C)[Si](C)(C)O[C@@H]1C[C@@H](/C=C\I)N2CCCC[C@]12C	3.9
O=C1CCC[C@@H]2[C@H]3CCCN4CCC[C@@H](CN12)[C@@H]34 [MATRINE]	1010

test system: Toxoplasma gondii; test: Antiparasitic activity against Toxoplasma gondii RH infected in human HFF cells; type: functional, organism-based

SMILES	IC50
O=C1C2=C(C(=O)c3ccccc31)[C@H]1Oc3ccc(Cl)cc3[C@H]1CO2	< 1 µM
C=C(C)C1CC=C(C)C(=O)C1 (stereo not given) [CARVONE]	16.1 µg/mL
CC1=C(c2nccs2)O[C@@H]2O[C@@]3(C)CC[C@H]4[C@H](C)CC[C@@H]1[C@@]24OO3	1 µM
O=C1C2=C(C(=O)c3ccccc31)[C@H]1Oc3ccccc3[C@H]1CO2 [PTEROCARPANQUINONE]	2.5 µM
CCCCCCCCCCCCc1c(C)n(O)c2ccccc2c1=O	0.0008 µM
C=CC(C)(O)CCC=C(C)C (stereo not given) [LINALOOL]	4.48 µg/mL
COC(=O)C1C(C)=CCCC1(C)C (stereo not given)	242 µg/mL
Cc1nc[nH]c1-c1nnc(Nc2ccc(I)cc2)s1	4.76 µg/mL
CC(C)CCCc1ccc2c(c1)C(=O)C=C(N1CCCC1)C2=O	0.32 µM
COC(=O)Cn1c(C(=O)NS(=O)(=O)C2=Cc3ccccc3C2)cc2cc(OC)ccc21	0.13 µM
Cc1[nH]c2cc(F)cc(F)c2c(=O)c1-c1ccc(Oc2ccc(OC(F)(F)F)cc2)cc1	0.005 µM
CC1=CCC(C(C)(C)O)CC1 (stereo not given)	4.4 µg/mL
C/C(=N\Nc1nc(-c2ccc([N+](=O)[O-])cc2)cs1)c1ccc(Nc2nc(N)nc(N)n2)cc1	14.9 µg/mL
C[C@@H]1CC[C@H]2[C@@H](C)C(=O)O[C@@H]3O[C@@]4(C)CC[C@@H]1[C@]32OO4 [ARTEMISININ]	1.7 µM
CC(C)=CCC1=C(O)C(=O)c2ccccc2C1=O [LAPACHOL]	0.4 µg/mL
Cc1[nH]c2c(c(=O)c1-c1ccc(Oc3ccc(OC(F)(F)F)cc3)cc1)CCCC2	0.00012 µM
C/C=C/C1=C(O)C(=O)c2ccccc2C1=O	3.01 µM
CC(C)=CCC/C(C)=C\C=O	24 µg/mL
CCCCCCCCCCCCc1c(C)c(=O)c2ccccc2n1O [COMPOUND A]	0.0004 µM
Oc1ccccc1 [PHENOL]	4.77 µg/mL
O=C1C2=C(C(=O)c3ccccc31)[C@H]1Oc3ccc(Br)cc3[C@H]1CO2	2.6 µM
C=C(C)C1CC=C(C)CC1 (stereo not given)	241 µg/mL

test system: Toxoplasma gondii; test: Antiparasitic activity against Toxoplasma gondii; type: functional, organism-based

SMILES	IC50
Oc1cc(Cl)ccc1Oc1ccc(Cl)cc1Cl [TRICLOSAN]	3 µM
CCCCCCCCCCCCCCCCC1(C)SC(=O)C(Cc2ccccc2)=C1O (stereo not given)	6 µM
CC(C)=CCC/C(C)=C/CO [GERANIOL]	4 µg/mL
COc1cc(C=O)ccc1O [VANILLIN]	645 µg/mL
Oc1ccc(/C=C/c2cc(O)cc(O)c2)cc1 [RESVERATROL]	54.6 µM
COc1cc(/C=C/C(=O)CC(=O)/C=C/c2ccc(O)c(OC)c2)ccc1O [CURCUMIN]	38.3 µM
CCCCCCCCCCCCCCCCC1(C)SC(=O)C(CCC)=C1O (stereo not given)	2 µM
COc1cc(/C=C/C(=O)C(=Cc2ccc(F)c(F)c2)C(=O)/C=C/c2ccc(O)c(OC)c2)ccc1O	0.8 µM
COc1cc(C2c3cc(c(O)cc3O)C(c3ccc(O)c(OC)c3)c3cc(c(O)cc3O)C(c3ccc(O)c(OC)c3)c3cc(c(O)cc3O)C(c3ccc(O)c(OC)c3)c3cc2c(O)cc3O)ccc1O (stereo not given)	> 2000 µg/mL
COc1ccc(/C=C/C(=O)C(=Cc2ccc(F)c(F)c2)C(=O)/C=C/c2ccc(OC)c(OC)c2)cc1OC	0.33 µM

biological target: T1, Bifunctional dihydrofolate reductase-thymidylate synthase (Toxoplasma gondii, UniProt Q07422); test: Inhibition of Toxoplasma gondii Dihydrofolate reductase
T1 sequence (Q07422 whole entry): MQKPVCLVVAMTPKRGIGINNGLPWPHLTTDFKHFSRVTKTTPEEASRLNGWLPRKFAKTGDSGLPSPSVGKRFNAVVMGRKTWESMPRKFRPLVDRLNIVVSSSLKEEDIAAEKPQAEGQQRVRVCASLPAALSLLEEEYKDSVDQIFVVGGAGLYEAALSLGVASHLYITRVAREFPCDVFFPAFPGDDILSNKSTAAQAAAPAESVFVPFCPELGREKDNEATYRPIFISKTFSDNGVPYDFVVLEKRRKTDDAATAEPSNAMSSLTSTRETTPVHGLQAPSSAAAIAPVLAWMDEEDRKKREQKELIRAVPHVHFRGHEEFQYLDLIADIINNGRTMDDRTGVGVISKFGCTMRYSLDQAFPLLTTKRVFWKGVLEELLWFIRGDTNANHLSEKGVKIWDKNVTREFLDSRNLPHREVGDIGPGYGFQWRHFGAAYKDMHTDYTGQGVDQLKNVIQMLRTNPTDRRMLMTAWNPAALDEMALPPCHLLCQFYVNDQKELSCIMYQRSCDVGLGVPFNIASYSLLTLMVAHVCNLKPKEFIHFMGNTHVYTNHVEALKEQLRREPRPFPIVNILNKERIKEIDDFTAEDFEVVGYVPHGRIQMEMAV

SMILES	IC50 [µM]
Cc1ccc(CSc2ncnc3c2ncn3[C@@H]2C[C@H](CO)[C@@H](O)[C@H]2O)cc1	0.0119
CC1(C)N=C(N)N=C(N)N1OCCCOc1ccc(OC(F)(F)F)cc1Cl	0.02
CC[C@@H](C)[C@H]1OC(=O)[C@H](C(C)(C)O)N(C)C(=O)[C@H](CC(C)C)NC(=O)[C@H](C(C)C)N(C)C(=O)[C@H]([C@@H](C)CC)NC(=O)[C@@H]2CCCN2C(=O)[C@H](Cc2ccccc2)N(C)C(=O)[C@H](Cc2ccccc2)NC(=O)[C@H](C(C)C)N(C)C1=O [BASIFUNGIN] (cyclo(F[NMeF]PI[NMeV]L[NMeVal(β-OH)][X1][NMeV]))	0.3
O=C(c1ccccc1O)c1[nH]c(Cl)c(Cl)c1-n1c(C(=O)c2ccccc2O)cc(Cl)c1Cl	0.31
O=C(c1ccccc1O)c1[nH]c(Cl)c(Cl)c1-n1c(C(=O)c2ccc(Cl)cc2O)cc(Cl)c1Cl	0.16
O=c1cc(-c2cccc3c2Sc2ccccc2S3)oc(N2CCOCC2)c1 [KU-55933]	0.00215
O=C(c1cc(Br)c(F)[nH]1)c1cc(Cl)cc(Cl)c1O	0.17
Cc1cc(C)c(O)c(C(=O)c2cc(Br)c(Br)[nH]2)c1	0.09
